Results reported in ChEMBL document CHEMBL1150085, “Gummiferol, a cytotoxic polyacetylene from the leaves of Adenia gummifera” (1995).
In brackets after ≈: the same amount, converted by molar mass.

Experiments:
A-431 = test: Cytotoxicity against human A431 cells; type: functional; details: read-out: ED50 (the source's name)
KB [1] = test: Cytotoxicity against human vinblastine-negative KB cells; type: functional; details: read-out: ED50 (the source's name)
Col2 = test: Cytotoxicity against human Col2 cells; type: functional; details: read-out: ED50 (the source's name)
[2] = Cytotoxicity against human U373 cells; type: functional, U-373MG ATCC; details: U373 MG, read-out: ED50 (the source's name)
KB [3] = test: Cytotoxicity against human vinblastine-positive KB cells; type: functional; details: read-out: ED50 (the source's name)
SK-MEL-2 = test: Cytotoxicity against human SK-MEL-2 cells; type: functional; details: read-out: ED50 (the source's name)
P388 = test: Cytotoxicity against mouse P388 cells; type: functional; details: read-out: ED50 (the source's name)
Lu1 = test: Cytotoxicity against human Lu1 cells; type: functional; details: read-out: ED50 (the source's name)
[4] = Cytotoxicity against human BC1 cells; type: functional; details: read-out: ED50 (the source's name)
LNCaP = test: Cytotoxicity against human LNCAP cells; type: functional; details: read-out: ED50 (the source's name)
HT = test: Cytotoxicity against human HT cells; type: functional; details: read-out: ED50 (the source's name)
ZR-75-1 = test: Cytotoxicity against human ZR-75-1 cells; type: functional; details: read-out: ED50 (the source's name)
KB [5] = test: Cytotoxicity against human KB cells; type: functional; details: read-out: ED50 (the source's name)

## CC(=O)OC/C=C/C1OC1C1OC1C#CC#CC#CCO (stereo not drawn) [GUMMIFEROL]
A-431
  EC50: 0.5 µg/mL (≈ 1.75 µM)
KB [1]
  EC50: 0.4 µg/mL (≈ 1.4 µM)
Col2
  EC50: 0.6 µg/mL (≈ 2.1 µM)
[2]
  EC50: 0.05 µg/mL (≈ 0.175 µM)
KB [3]
  EC50: 0.3 µg/mL (≈ 1.05 µM)
SK-MEL-2
  EC50: 1.3 µg/mL (≈ 4.54 µM)
P388
  EC50: 0.03 µg/mL (≈ 0.105 µM)
Lu1
  EC50: 0.9 µg/mL (≈ 3.14 µM)
[4]
  EC50: 0.2 µg/mL (≈ 0.699 µM)
LNCaP
  EC50: 0.2 µg/mL (≈ 0.699 µM)
HT
  EC50: 0.1 µg/mL (≈ 0.349 µM)
ZR-75-1
  EC50: 0.2 µg/mL (≈ 0.699 µM)
KB [5]
  EC50: 0.3 µg/mL (≈ 1.05 µM)
